Measurements: patent US20080318892A1, “METHODS AND FORMULATIONS FOR PROTECTING CELLS, AND FOR TREATING DISEASES AND CONDITIONS BY OPTIMIZING THE INTRACELLULAR CONCENTRATION OF NAD” (priority 2007, published 2008)

What was measured:
[1] = target: T1, Nampt (Homo sapiens, UniProt P43490); assay: Nicotinamide phosphoribosyltransferase (Nampt/PBEF) activity in SMC lysates, [14C]nicotinamide to NMN; format: cell-based
T1 construct: endogenous in cells; host or cells: human vascular SMCs (primary and HITC6), whole cell lysates
T1 sequence (P43490 whole entry): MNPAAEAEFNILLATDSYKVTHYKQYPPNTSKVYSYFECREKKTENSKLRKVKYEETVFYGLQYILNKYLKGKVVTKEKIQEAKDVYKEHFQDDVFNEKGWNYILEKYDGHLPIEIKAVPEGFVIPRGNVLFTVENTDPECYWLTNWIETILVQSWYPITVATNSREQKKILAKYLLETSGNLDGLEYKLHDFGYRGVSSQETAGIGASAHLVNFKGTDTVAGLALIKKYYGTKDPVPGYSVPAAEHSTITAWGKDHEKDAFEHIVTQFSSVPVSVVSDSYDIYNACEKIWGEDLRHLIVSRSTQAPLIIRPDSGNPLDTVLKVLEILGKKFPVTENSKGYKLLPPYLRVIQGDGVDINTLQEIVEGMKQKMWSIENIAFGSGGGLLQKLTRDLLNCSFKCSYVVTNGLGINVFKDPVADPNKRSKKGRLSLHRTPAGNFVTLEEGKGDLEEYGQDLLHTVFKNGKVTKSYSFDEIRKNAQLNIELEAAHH
Procedure: Nicotinamide Phosphoribosyltransferase Activity. […] Labelled acetone-precipitable nicotinamide mononucleotide was quantified by scintillation counting.
Assessment of Nicotinamide Phosphoribosyltransferase Activity. […] Briefly, SMCs were lysed in buffer containing 10 mM NaH2PO4/Na2HPO4, at pH 8.8. Cell lysates were incubated with 0.5 μM [carbonyl-^14C]nicotinamide and 0.5 mM phosphoribosylpyrophosphate for 4 h on a rotating rocker at 37° C.

[2] = test system: HITC6 SMCs; assay: Senescence-associated beta-galactosidase activity / senescence-free survival; format: cell-based, human; details: successive subcultures incubated with 10 nM FK866; p<0.0001
Procedure: Senescence-associated β-Galatosidase Activity Assay. SMCs on glass coverslips at approximately 70% confluence were fixed in 2% formaldehyde/0.2% glutaraldehyde in PBS for 3 minutes and incubated with X-gal-containing reaction mixture, as previously described (Dimri, 1995). Washed cells were stained with Hoechst 33258 (2.5 μg/ml) and the proportion of senescence-associated β-galactosidase (SA β-Gal)-positive cells quantified from 10 microscope fields of view (Olympus BX51, ×20 objective, approximately 1200 cells). Senescence-free survival was determined using Kaplan-Meier analysis of survival vs. replicative age.
Senescence-associated Beta-galactosidase Activity. Senescence-associated beta-galactosidase (SA-β-gal) activity was determined as previously described (Dimri et al, 1995). Briefly, SMCs were fixed in PBS containing 2% formaldehyde/0.2% glutaraldehyde for 3 min at room temperature. Fixed cells were then incubated for 4-6 h at 37° C. with SA-β-gal stain solution containing 150 mM NaCl, 2 mM MgCl, 40 mM citrate, 5 mM potassium ferrocyanide, 5 mM potassium ferricyanide, and 1 mg/ml of 5-bromo-4-chloro-3-indolyl-β-D-galactopyranoside (X-gal) (Invitrogen, Carlsbad, Calif., USA), at pH 6.0. SMCs were counterstained with 2.5 μg/ml Hoechst 33258 to detect cell nuclei. The proportion of SA-β-gal activity positive cells was quantified using light and fluorescence microscopy (Olympus BX51, Center Valley, Pa., USA).

[3] = test system: SIRT1; assay: SIRT1 deacetylase activity in live SMCs (Fluor de Lys-SIRT1 substrate, TSA-independent); format: cell-based, human; details: HITC6 SMCs incubated with 10 nM FK866, 48 h
Procedure: In vivo assessment of SIRT1 deacetylase activity. Cell-based assessment of SIRT1-like enzymatic activity was performed using the Fluor de lys-SIRT1 substrate (Biomol, Plymouth Meeting, Pa.), as previously described (de Boer, 2006). SMCs in phenol-red free M199 with 5% FBS were incubated for 2 h with 5 μM TSA followed by addition of the fluorogenic substrate for 4 h. Signal was quantified by spectrofluorimetry (Wallac, Wellesley, Mass.) and normalized to total protein content.
Assessment of SIRT1 Deacetylase Activity. SIRT1 deacetylase activity was quantified in live cells as previously reported (de Boer et al, 2006). SMCs cultured in phenol red-free M199 were incubated without serum for 2 h with 1 μM trichostatin A (Sigma, St. Louis, Mo., USA) followed by addition of 25 μM Fluor-de-Lys-SIRT1 fluorogenic substrate (Biomol, Plymouth Meeting, Pa., USA) for 4 h. Media containing fluorogenic substrate and reaction product was incubated with an equal volume of SIRT1 assay buffer containing 2 mM nicotinamide and developer (Biomol, Plymouth Meeting, Pa., USA). Signal was quantified by spectrofluorometry (Wallac VICTOR-1420, PerkinElmer Life Science, Waltham, Mass., USA) and normalized to total protein content

- PBEF activity in SMCs, % of baseline ([1]; 10 nM FK866): 22±2%
- Nampt activity relative to basal level ([1]; SMCs incubated with 10 nM FK866, p<0.001): 0.11±0.05
- SIRT1 activity [3]: substantial loss
SMILES: O=C(/C=C/c1cccnc1)NCCCCC1CCN(C(=O)c2ccccc2)CC1 [FK866, reference compound]
- senescence-free survival (Kaplan-Meier) [2]: substantially shortened
